# Measurements: patent US10131652B2, “Pyrimidinyloxy benzene derivatives as herbicides” (E. I. DU PONT DE NEMOURS AND COMPANY, priority 2014, dated 2018)
# Read-outs that look alike come from different tables or passages of the source.
# Assays:
# Type in all cases: in vivo
# [1] = system: chickweed (common chickweed, Stellaria media); assay: Test D postemergence plant response
# Outline: (§1)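 The formulated test chemicals were applied over the foliage of young potted plants (2 to 18 cm tall), which were then held under greenhouse conditions. Between days 13 and 15 each species was rated by eye versus controls, from 0 for no effect up to 100 for complete control.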
# kochia (Kochia scoparia) [2] = assay: Test D postemergence plant response
# Outline: as §1
# wild oat (Avena fatua) = assay: Test D postemergence plant response
# Outline: as §1
# [3] = system: ragweed (common ragweed, Ambrosia elatior); assay: Test B pre-/postemergence plant response
# Outline: (§2)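 Evaluation is visual, about 10 days after application, rating injury from 0 (none) to 100 (complete control) relative to untreated controls. Application was a preemergence soil spray on seeded pots or a postemergence spray on one- to two-leaf plants.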
# [4] = system: Italian ryegrass (Lolium multiflorum); assay: Test B pre-/postemergence plant response
# Outline: as §2
# kochia (Kochia scoparia) [5] = assay: Test B pre-/postemergence plant response
# Outline: as §2
# corn (Zea mays) = assay: Test B pre-/postemergence plant response
# Outline: as §2
# [6] = system: giant foxtail (Setaria faberii); assay: Test B pre-/postemergence plant response; conditions: for pest or weed control at 125 g/ha / pest or weed control at 500 g/ha: Setaria faberi, 240 h, read-out: Plant response rating, Foxtail, Giant
# Outline: as §2
# [7] = system: barnyardgrass (Echinochloa crus-galli); assay: Test B pre-/postemergence plant response; conditions: for pest or weed control at 125 g/ha / pest or weed control at 500 g/ha: Echinochloa crus-galli, 240 h, read-out: Plant response rating, Barnyardgrass
# Outline: as §2
# [8] = system: wheat (Triticum aestivum); assay: Test B pre-/postemergence plant response
# Outline: as §2
# [9] = system: pigweed (Amaranthus retroflexus); assay: Test B pre-/postemergence plant response; conditions: for pest or weed control at 125 g/ha / pest or weed control at 500 g/ha: Amaranthus retroflexus, 240 h, read-out: Plant response rating, Pigweed
# Outline: as §2
# [10] = system: small-flower umbrella sedge (Cyperus difformis); assay: Test C flooded paddy test plant response; conditions: Flood, 250 g ai/ha, scale of 0 to 100 where 0 is no effect and 100 is complete control, 13 to 15 days
# Outline: (§3)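 Plants grown to the 2-leaf stage; pots flooded to 3 cm above soil, test compounds applied directly to paddy water, depth maintained throughout. Greenhouse for 13 to 15 days, then visual rating versus controls on a 0–100 scale (0 no effect, 100 complete control).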
# rice (Oryza sativa) = assay: Test C flooded paddy test plant response; conditions: Flood, 250 g ai/ha, scale of 0 to 100 where 0 is no effect and 100 is complete control, 13 to 15 days
# Outline: as §3
# [11] = system: barnyardgrass (Echinochloa crus-galli); assay: Test C flooded paddy test plant response; conditions: Flood, 250 g ai/ha, scale of 0 to 100 where 0 is no effect and 100 is complete control, 13 to 15 days
# Outline: as §3
# [12] = system: ducksalad (Heteranthera limosa); assay: Test C flooded paddy test plant response; conditions: Flood, 250 g ai/ha, scale of 0 to 100 where 0 is no effect and 100 is complete control, 13 to 15 days
# Outline: as §3
# [13] = system: blackgrass (Alopecurus myosuroides); assay: Test B postemergence plant response
# Outline: (§4)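 Values are visual control ratings (0 to 100) recorded approximately 10 days after postemergence application to greenhouse-grown plants of 2 to 10 cm, one- to two-leaf stage, each judged against untreated controls.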
# [14] = system: galium (catchweed bedstraw, Galium aparine); assay: Test B postemergence plant response
# Outline: as §4
# [15] = 125 g ai/ha, postemergence, 0 to 100 scale, 0 no effect, 100 complete control
# [16] = Postemergence, 500 g ai/ha, 0 to 100 scale (0 no effect, 100 complete control)
# [17] = Preemergence, 125 g ai/ha, 0 to 100 scale where 0 is no effect and 100 is complete control
# [18] = Preemergence, 500 g ai/ha, 0 to 100 scale where 0 is no effect and 100 is complete control
# [19] = post-emergence, 125 g ai/ha, postemergence, 0 to 100 scale, 0 no effect, 100 complete control
# [20] = post-emergence, Postemergence, 500 g ai/ha, 0 to 100 scale (0 no effect, 100 complete control)
# [21] = pre-emergence, Preemergence, 125 g ai/ha, 0 to 100 scale where 0 is no effect and 100 is complete control
# [22] = pre-emergence, Preemergence, 500 g ai/ha, 0 to 100 scale where 0 is no effect and 100 is complete control
# [23] = 16 g ai/ha, scale 0 to 100 (0 no effect, 100 complete control)
# [24] = 31 g ai/ha, scale 0 to 100 (0 no effect, 100 complete control)
# [25] = 62 g ai/ha, scale 0 to 100, 0 no effect, 100 complete control
# [26] = 125 g ai/ha, scale 0 to 100, 0 no effect, 100 complete control
smiles,measurement,setting,value
"FC(F)c1cc(-c2ccccc2Oc2ncc(Cl)cn2)on1 [Compound 53, 5-chloro-2-[2-[3-(difluoromethyl)-5-isoxazolyl]phenoxy]pyrimidine]",pest or weed control at 16 g/ha,"[1]; Stellaria media, post-emergence, 16 g ai/ha, scale 0 to 100 (0 no effect, 100 complete control), read-out: Chickweed plant response rating",50%
same,pest or weed control at 31 g/ha,"[1]; Stellaria media, post-emergence, 31 g ai/ha, scale 0 to 100 (0 no effect, 100 complete control), read-out: Chickweed plant response rating",80%
same,pest or weed control at 62 g/ha,"[1]; Stellaria media, post-emergence, 62 g ai/ha, scale 0 to 100, 0 no effect, 100 complete control, read-out: Plant response rating, Chickweed",80%
same,pest or weed control at 125 g/ha,"[1]; Stellaria media, post-emergence, 125 g ai/ha, scale 0 to 100, 0 no effect, 100 complete control, read-out: Plant response rating, Chickweed",90%
same,pest or weed control at 16 g/ha,"kochia (Kochia scoparia) [2]; Bassia scoparia, post-emergence, 16 g ai/ha, scale 0 to 100 (0 no effect, 100 complete control), read-out: Kochia plant response rating",90%
same,pest or weed control at 31 g/ha,"kochia (Kochia scoparia) [2]; Bassia scoparia, post-emergence, 31 g ai/ha, scale 0 to 100 (0 no effect, 100 complete control), read-out: Kochia plant response rating",100%
same,pest or weed control at 62 g/ha,"kochia (Kochia scoparia) [2]; Bassia scoparia, post-emergence, 62 g ai/ha, scale 0 to 100, 0 no effect, 100 complete control, read-out: Plant response rating, Kochia",100%
same,pest or weed control at 125 g/ha,"kochia (Kochia scoparia) [2]; Bassia scoparia, post-emergence, 125 g ai/ha, scale 0 to 100, 0 no effect, 100 complete control, read-out: Plant response rating, Kochia",100%
same,pest or weed control at 16 g/ha,"wild oat (Avena fatua); Avena fatua, post-emergence, 16 g ai/ha, scale 0 to 100 (0 no effect, 100 complete control), read-out: Oat, Wild plant response rating",5%
same,pest or weed control at 31 g/ha,"wild oat (Avena fatua); Avena fatua, post-emergence, 31 g ai/ha, scale 0 to 100 (0 no effect, 100 complete control), read-out: Oat, Wild plant response rating",10%
same,pest or weed control at 62 g/ha,"wild oat (Avena fatua); Avena fatua, post-emergence, 62 g ai/ha, scale 0 to 100, 0 no effect, 100 complete control, read-out: Plant response rating, Oat, Wild",30%
same,pest or weed control at 125 g/ha,"wild oat (Avena fatua); Avena fatua, post-emergence, 125 g ai/ha, scale 0 to 100, 0 no effect, 100 complete control, read-out: Plant response rating, Oat, Wild",20%
same,"Plant response rating, Ragweed",[3]; [15],60
same,"Plant response rating, Ragweed",[3]; [16],90
same,"Plant response rating, Ragweed",[3]; [17],10
same,"Plant response rating, Ragweed",[3]; [18],50
same,"Plant response rating, Ryegrass, Italian",[4]; [15],80
same,"Plant response rating, Ryegrass, Italian",[4]; [16],100
same,"Plant response rating, Ryegrass, Italian",[4]; [17],10
same,"Plant response rating, Ryegrass, Italian",[4]; [18],40
same,"Plant response rating, Kochia",kochia (Kochia scoparia) [5]; [15],100
same,"Plant response rating, Kochia",kochia (Kochia scoparia) [5]; [16],100
same,"Plant response rating, Kochia",kochia (Kochia scoparia) [5]; [17],100
same,"Plant response rating, Kochia",kochia (Kochia scoparia) [5]; [18],100
same,"Corn plant response rating (crop injury, 0 = no effect, 100 = complete kill) at 125 g/ha","corn (Zea mays); Zea mays, post-emergence, 240 h, 125 g ai/ha, postemergence, 0 to 100 scale, 0 no effect, 100 complete control",10%
same,"Corn plant response rating (crop injury, 0 = no effect, 100 = complete kill) at 500 g/ha","corn (Zea mays); Zea mays, post-emergence, 240 h, Postemergence, 500 g ai/ha, 0 to 100 scale (0 no effect, 100 complete control)",70%
same,pest or weed control at 125 g/ha,[6]; [19],100%
same,pest or weed control at 500 g/ha,[6]; [20],100%
same,pest or weed control at 125 g/ha,[6]; [21],90%
same,pest or weed control at 500 g/ha,[6]; [22],100%
same,pest or weed control at 125 g/ha,[7]; [19],100%
same,pest or weed control at 500 g/ha,[7]; [20],100%
same,pest or weed control at 125 g/ha,[7]; [21],90%
same,pest or weed control at 500 g/ha,[7]; [22],100%
same,plant injury at 125 g/ha,"[8]; Triticum aestivum, post-emergence, 240 h, 125 g ai/ha, postemergence, 0 to 100 scale, 0 no effect, 100 complete control, read-out: Plant response rating, Wheat",40%
same,plant injury at 500 g/ha,"[8]; Triticum aestivum, post-emergence, 240 h, Postemergence, 500 g ai/ha, 0 to 100 scale (0 no effect, 100 complete control), read-out: Plant response rating, Wheat",80%
same,pest or weed control at 125 g/ha,[9]; [19],100%
same,pest or weed control at 500 g/ha,[9]; [20],100%
same,pest or weed control at 125 g/ha,[9]; [21],100%
same,pest or weed control at 500 g/ha,[9]; [22],100%
same,pest or weed control at 250 g/ha,"[10]; Cyperus difformis, read-out: Sedge, Umbrella plant response rating",75%
same,plant injury at 250 g/ha,"rice (Oryza sativa); Oryza sativa, read-out: Rice plant response rating",20%
same,pest or weed control at 250 g/ha,"[11]; Echinochloa crus-galli, read-out: Barnyardgrass plant response rating",20%
same,pest or weed control at 250 g/ha,"[12]; Heteranthera limosa, read-out: Ducksalad plant response rating",80%
same,"Plant response rating, Blackgrass",[13]; [15],100
same,"Plant response rating, Blackgrass",[13]; [16],100
same,"Plant response rating, Galium",[14]; [15],100
same,"Plant response rating, Galium",[14]; [16],100
FC(F)(F)c1cc(-c2ccccc2Oc2ncc(Cl)cn2)ncn1 [Compound 54],Chickweed plant response rating,[1]; [23],5
same,Chickweed plant response rating,[1]; [24],5
same,"Plant response rating, Chickweed",[1]; [25],5
same,"Plant response rating, Chickweed",[1]; [26],5
same,Kochia plant response rating,kochia (Kochia scoparia) [2]; [23],50
same,Kochia plant response rating,kochia (Kochia scoparia) [2]; [24],55
same,"Plant response rating, Kochia",kochia (Kochia scoparia) [2]; [25],80
same,"Plant response rating, Kochia",kochia (Kochia scoparia) [2]; [26],80
same,"Oat, Wild plant response rating",wild oat (Avena fatua); [23],0
same,"Oat, Wild plant response rating",wild oat (Avena fatua); [24],0
same,"Plant response rating, Oat, Wild",wild oat (Avena fatua); [25],5
same,"Plant response rating, Oat, Wild",wild oat (Avena fatua); [26],5
same,"Plant response rating, Ragweed",[3]; [15],50
same,"Plant response rating, Ragweed",[3]; [16],60
same,"Plant response rating, Ragweed",[3]; [17],60
same,"Plant response rating, Ragweed",[3]; [18],70
same,"Plant response rating, Ryegrass, Italian",[4]; [15],30
same,"Plant response rating, Ryegrass, Italian",[4]; [16],60
same,"Plant response rating, Ryegrass, Italian",[4]; [17],30
same,"Plant response rating, Ryegrass, Italian",[4]; [18],60
same,"Plant response rating, Kochia",kochia (Kochia scoparia) [5]; [15],100
same,"Plant response rating, Kochia",kochia (Kochia scoparia) [5]; [16],100
same,"Plant response rating, Kochia",kochia (Kochia scoparia) [5]; [17],80
same,"Plant response rating, Kochia",kochia (Kochia scoparia) [5]; [18],100
same,"Plant response rating, Corn",corn (Zea mays); [15],0
same,"Plant response rating, Corn",corn (Zea mays); [16],0
same,"Plant response rating, Foxtail, Giant",[6]; [15],80
same,"Plant response rating, Foxtail, Giant",[6]; [16],100
same,"Plant response rating, Foxtail, Giant",[6]; [17],100
same,"Plant response rating, Foxtail, Giant",[6]; [18],100
same,"Plant response rating, Barnyardgrass",[7]; [15],20
same,"Plant response rating, Barnyardgrass",[7]; [16],100
same,"Plant response rating, Barnyardgrass",[7]; [17],60
same,"Plant response rating, Barnyardgrass",[7]; [18],100
same,"Plant response rating, Wheat",[8]; [15],0
same,"Plant response rating, Wheat",[8]; [16],0
same,"Plant response rating, Pigweed",[9]; [15],100
same,"Plant response rating, Pigweed",[9]; [16],100
same,"Plant response rating, Pigweed",[9]; [17],100
same,"Plant response rating, Pigweed",[9]; [18],100
same,"Sedge, Umbrella plant response rating",[10],0
same,Rice plant response rating,rice (Oryza sativa),0
same,Barnyardgrass plant response rating,[11],0
same,Ducksalad plant response rating,[12],60
same,"Plant response rating, Blackgrass",[13]; [15],70
same,"Plant response rating, Blackgrass",[13]; [16],80
same,"Plant response rating, Galium",[14]; [15],100
same,"Plant response rating, Galium",[14]; [16],100
